From PubChem BioAssay (NCI) come the findings set out here.

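Where inhibition never reached the appropriate level, the endpoint shown equals the highest concentration tested. Otherwise, values were interpolated linearly from a five-concentration, 48-hour dose response in 96-well plates. TGI denotes the concentration required for complete inhibition of growth.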

Among the test systems are MDA-MB-435; SW-620 colon; NCI-H460 lung; SNB-75 CNS; SNB-19 CNS; NCI-H23 lung; A549 NSCLC; NCI/ADR-RES ovarian; HCT-116 colon; DU-145 prostate; MALME-3M melanoma; MCF7 breast; NCI-H226 lung; CCRF-CEM leukemia; RXF 393 renal; HL-60(TB) leukemia; OVCAR-8 ovarian; A498 renal; OVCAR-3 ovarian; SK-MEL-5 melanoma.
Assay in all cases: NCI anticancer screen, dose series, 48 h

For `Oc1ccc(-c2cn3cc(C(F)(F)F)ccc3n2)cc1`, the TGI in the experiment with MDA-MB-435, in the experiment with SW-620 colon, in the experiment on NCI-H460 lung, in the experiment with SNB-75 CNS, in the experiment on SNB-19 CNS and in the experiment on NCI-H23 lung was over 100 µM throughout. The TGI in the experiment on A549 NSCLC, in the experiment with NCI/ADR-RES ovarian, with HCT-116 colon, in the experiment with DU-145 prostate, in the experiment on MALME-3M melanoma and in the experiment on MCF7 breast was over 100 µM throughout. In addition, the TGI with NCI-H226 lung, in the experiment with CCRF-CEM leukemia, in the experiment on RXF 393 renal, in the experiment on HL-60(TB) leukemia, in the experiment with OVCAR-8 ovarian and in the experiment on A498 renal was over 100 µM throughout. Also, the TGI in the experiment on OVCAR-3 ovarian and with SK-MEL-5 melanoma was over 100 µM in each case.
For the compound `CN(C)Cc1cc(N=Nc2ccc(Cl)cc2)ccc1O`, the TGI was 30.3 µM in the experiment with MDA-MB-435; 30.7 µM in the experiment with SW-620 colon; 26.7 µM in the experiment with NCI-H460 lung; 28.8 µM in the experiment with SNB-75 CNS; 34.1 µM in the experiment with SNB-19 CNS; 45.2 µM in the experiment with NCI-H23 lung. The TGI in the experiment with A549 NSCLC was 29.4 µM; with NCI/ADR-RES ovarian, 33.4 µM; with HCT-116 colon, 31.2 µM; in the experiment with DU-145 prostate it was 48.1 µM; with MALME-3M melanoma it was 27.2 µM; in the experiment on MCF7 breast, 31.4 µM. The TGI with NCI-H226 lung is 30.3 µM; with CCRF-CEM leukemia it was 36.7 µM; in the experiment on RXF 393 renal, 27.9 µM; in the experiment with HL-60(TB) leukemia, 32.1 µM; in the experiment with OVCAR-8 ovarian, 30.6 µM; with A498 renal, 31.8 µM. In addition, the TGI with OVCAR-3 ovarian came to 24.2 µM; with SK-MEL-5 melanoma, 27.6 µM.
As to `O=C1C(Cl)=C(N2CCN(c3ccccn3)CC2)C(=O)c2ncccc21`, the TGI in the experiment with MDA-MB-435 was 3.17 µM; in the experiment with SW-620 colon, 3.79 µM; in the experiment with NCI-H460 lung, 13.4 µM; in the experiment with SNB-75 CNS it was 19.8 µM; in the experiment on SNB-19 CNS it was 25 µM; in the experiment on NCI-H23 lung, 5.47 µM. Also, the TGI with A549 NSCLC worked out at 19.5 µM; with NCI/ADR-RES ovarian, 7.44 µM; with HCT-116 colon it was 3.14 µM; with DU-145 prostate, 24.1 µM; in the experiment with MALME-3M melanoma, 3.21 µM; in the experiment with MCF7 breast, 3.21 µM. Further, the TGI in the experiment on NCI-H226 lung was 18.2 µM; in the experiment with CCRF-CEM leukemia it was 3.11 µM; in the experiment on RXF 393 renal it was 3.7 µM; with HL-60(TB) leukemia, 4.79 µM; with OVCAR-8 ovarian, 2.77 µM; in the experiment with A498 renal it was 23.8 µM. Besides, the TGI in the experiment on OVCAR-3 ovarian was determined as 3.21 µM; in the experiment on SK-MEL-5 melanoma, 4.22 µM.
As for `CC(Oc1ccccc1Cl)C(=O)NN1C(=O)CSC1c1ccc(Cl)cc1` (stereo not given), the TGI in the experiment on MDA-MB-435 came to 31.1 µM; in the experiment with SW-620 colon it was 55.2 µM; in the experiment on NCI-H460 lung it was 59.8 µM; in the experiment on SNB-75 CNS, 45.4 µM; with SNB-19 CNS, 50.2 µM; in the experiment on NCI-H23 lung it was 39.2 µM. The TGI with A549 NSCLC was 41 µM; in the experiment with NCI/ADR-RES ovarian, 61.4 µM; in the experiment with HCT-116 colon it was 29.3 µM; in the experiment with DU-145 prostate, 37.6 µM; with MALME-3M melanoma it was 93.4 µM; in the experiment with MCF7 breast, 35.7 µM. For the same compound, the TGI in the experiment with NCI-H226 lung stood at 35.3 µM; in the experiment with CCRF-CEM leukemia, 0.381 µM; with RXF 393 renal, 33.4 µM; with HL-60(TB) leukemia, 23.5 µM; in the experiment with OVCAR-8 ovarian, 56.5 µM; in the experiment with A498 renal, 34.8 µM. In addition, the TGI in the experiment on OVCAR-3 ovarian was found to be 61.9 µM; with SK-MEL-5 melanoma, 31.7 µM.
As to `COCCOCCOCCOc1ccc(C(C#N)N(CCc2ccccc2)C(=O)c2cc(C(=O)N(CCc3ccccc3)C(C#N)c3ccc(OCCOCCOCCOC)cc3)cc(C(=O)N(CCc3ccccc3)C(C#N)c3ccc(OCCOCCOCCOC)cc3)c2)cc1` (stereo not given), the TGI in the experiment with MDA-MB-435, in the experiment with SW-620 colon, in the experiment with NCI-H460 lung, with SNB-75 CNS, with SNB-19 CNS and in the experiment with NCI-H23 lung was over 100 µM in each case. Moreover, the TGI in the experiment with A549 NSCLC, with NCI/ADR-RES ovarian, with HCT-116 colon, in the experiment with DU-145 prostate, with MALME-3M melanoma and with MCF7 breast was over 100 µM in each case. For the same compound, the TGI in the experiment with NCI-H226 lung, with CCRF-CEM leukemia, in the experiment with RXF 393 renal, in the experiment with HL-60(TB) leukemia, in the experiment on OVCAR-8 ovarian and with A498 renal was over 100 µM throughout. Also, the TGI in the experiment with OVCAR-3 ovarian and with SK-MEL-5 melanoma was over 100 µM throughout.
Regarding `O=C(CN(c1ccc(S(=O)(=O)O)cc1)c1ccc(S(=O)(=O)O)cc1)Nn1cnc2ccc(S(=O)(=O)N(c3ccc(S(=O)(=O)O)cc3)c3ccc(S(=O)(=O)O)cc3)cc2c1=O`, the TGI with MDA-MB-435, in the experiment on SW-620 colon, in the experiment on NCI-H460 lung, with SNB-75 CNS, in the experiment with SNB-19 CNS and in the experiment with NCI-H23 lung was over 100 µM each time. For the same compound, the TGI in the experiment with A549 NSCLC, in the experiment with NCI/ADR-RES ovarian, with HCT-116 colon, in the experiment with DU-145 prostate, with MALME-3M melanoma and in the experiment with MCF7 breast was over 100 µM in each case. Moreover, the TGI in the experiment with NCI-H226 lung, in the experiment with CCRF-CEM leukemia, in the experiment on RXF 393 renal, in the experiment with HL-60(TB) leukemia, in the experiment on OVCAR-8 ovarian and in the experiment with A498 renal was over 100 µM in each case. Moreover, the TGI with OVCAR-3 ovarian and in the experiment with SK-MEL-5 melanoma was over 100 µM each time.
Turning to `O=C(O)C12C3CCC(O3)C1(C(=O)O)C1CCC2O1` (stereo not given), the TGI in the experiment on MDA-MB-435, with SW-620 colon, in the experiment with NCI-H460 lung, in the experiment on SNB-75 CNS, in the experiment with SNB-19 CNS and in the experiment on NCI-H23 lung was over 100 µM throughout. Besides, the TGI with A549 NSCLC, with NCI/ADR-RES ovarian, in the experiment with HCT-116 colon, with DU-145 prostate, with MALME-3M melanoma and with MCF7 breast was over 100 µM throughout. Further, the TGI in the experiment on NCI-H226 lung, with CCRF-CEM leukemia, in the experiment on RXF 393 renal, with HL-60(TB) leukemia, in the experiment with OVCAR-8 ovarian and with A498 renal was over 100 µM in each case. Further, the TGI with OVCAR-3 ovarian and with SK-MEL-5 melanoma was over 100 µM in each case.
For `NC(N)=NC(N)=Nc1ccccc1` (tested in a mixture with another compound), the TGI with MDA-MB-435, in the experiment on SW-620 colon, with NCI-H460 lung, in the experiment with SNB-75 CNS, in the experiment with SNB-19 CNS and in the experiment with NCI-H23 lung was over 100 µM throughout. Moreover, the TGI in the experiment with A549 NSCLC, in the experiment with NCI/ADR-RES ovarian, in the experiment on HCT-116 colon, in the experiment on DU-145 prostate, in the experiment with MALME-3M melanoma and in the experiment on MCF7 breast was over 100 µM in each case. The TGI in the experiment on NCI-H226 lung, in the experiment on CCRF-CEM leukemia, in the experiment with RXF 393 renal, with HL-60(TB) leukemia, in the experiment on OVCAR-8 ovarian and in the experiment on A498 renal was over 100 µM in each case. Also, the TGI with OVCAR-3 ovarian and in the experiment on SK-MEL-5 melanoma was over 100 µM throughout.
For `CC(=O)Oc1c(C)c2c(c3ccccc13)OC(C)(C)C2`, the TGI in the experiment on MDA-MB-435 is 33.2 µM; in the experiment on SW-620 colon, 35.8 µM; with NCI-H460 lung, 34.2 µM; with SNB-75 CNS it was 33.1 µM; in the experiment on SNB-19 CNS, 69.7 µM; in the experiment on NCI-H23 lung, 28 µM. Further, the TGI with A549 NSCLC was 33.9 µM; in the experiment on NCI/ADR-RES ovarian, 51.4 µM; with HCT-116 colon, 42.9 µM; in the experiment on DU-145 prostate, 31 µM; in the experiment on MALME-3M melanoma it was 30 µM; in the experiment with MCF7 breast, 35.4 µM. Further, the TGI was 40.7 µM with NCI-H226 lung; over 100 µM in the experiment with CCRF-CEM leukemia; 35.9 µM in the experiment with RXF 393 renal; 69.6 µM in the experiment with HL-60(TB) leukemia; 32.5 µM in the experiment with OVCAR-8 ovarian; 38.2 µM in the experiment on A498 renal. Besides, the values for the TGI in the experiment with OVCAR-3 ovarian and in the experiment with SK-MEL-5 melanoma were 52 µM and 22.9 µM, respectively.
`COC(=O)[C@@H]1Cc2cc(O)c(O)cc2C2(CCN(C)CC2)O1`: the TGI with MDA-MB-435, in the experiment with SW-620 colon, in the experiment on NCI-H460 lung, in the experiment with SNB-75 CNS, in the experiment on SNB-19 CNS and in the experiment with NCI-H23 lung was over 10 µM in each case. In addition, the TGI in the experiment with A549 NSCLC, in the experiment on NCI/ADR-RES ovarian, with HCT-116 colon, with DU-145 prostate, in the experiment on MALME-3M melanoma and in the experiment on MCF7 breast was over 10 µM in each case. Further, the TGI with NCI-H226 lung, in the experiment with CCRF-CEM leukemia, in the experiment on RXF 393 renal, in the experiment with HL-60(TB) leukemia, in the experiment with OVCAR-8 ovarian and with A498 renal was over 10 µM throughout. Further, the TGI with OVCAR-3 ovarian and in the experiment with SK-MEL-5 melanoma was over 10 µM in each case.
As for `Cn1c(=O)oc2cc(Br)ccc21`, the TGI in the experiment on MDA-MB-435, with SW-620 colon, with NCI-H460 lung, in the experiment with SNB-75 CNS, in the experiment on SNB-19 CNS and in the experiment with NCI-H23 lung was over 100 µM throughout. Further, the TGI in the experiment on A549 NSCLC, in the experiment on NCI/ADR-RES ovarian, in the experiment with HCT-116 colon, in the experiment with DU-145 prostate, in the experiment on MALME-3M melanoma and in the experiment with MCF7 breast was over 100 µM in each case. Further, the TGI with NCI-H226 lung, in the experiment on CCRF-CEM leukemia, in the experiment on RXF 393 renal, in the experiment with HL-60(TB) leukemia, in the experiment on OVCAR-8 ovarian and in the experiment on A498 renal was over 100 µM in each case. Also, the TGI in the experiment on OVCAR-3 ovarian and in the experiment on SK-MEL-5 melanoma was over 100 µM in each case.
